Among the data in PubChem BioAssay AID248 (DTP/NCI, 2004) are T/C values, retold here.

“And” between values parts separate entries of the source, which are not always exact repeats. Identical values can stand only once. Inconclusive results and toxic doses are left out.

In this assay the test system is L1210 leukemia ip in BDF1 mice, survival T/C. As to the kind of experiment: NCI In Vivo Anticancer Drug Screen. Data for tumor model L1210 Leukemia (intraperitoneal) in B6D2F1 (BDF1) mice. The settings on record: endpoint: mean survival time, higher = longer survival. The method, boiled down:
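Mice bearing the transplanted tumor received compound or vehicle. Survival of the treated group was divided by that of the vehicle-treated control group to give the ratio.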

Where [1] appears, read: dose: 50.0 mg/kg/injection, schedule: Q01DX001 (ip), vehicle: saline.
The mark [2] stands for this setting: dose: 100.0 mg/kg/injection, schedule: Q01DX001 (ip), vehicle: saline.
[3] abbreviates: dose: 100.0 mg/kg/injection, schedule: Q04DX003 (ip), vehicle: saline with Tween-80.
Where [4] appears, read: dose: 200.0 mg/kg/injection, schedule: Q01DX001 (ip), vehicle: saline.
[5] abbreviates: dose: 200.0 mg/kg/injection, schedule: Q04DX003 (ip), vehicle: saline with Tween-80.
The mark [6] stands for this setting: dose: 400.0 mg/kg/injection, schedule: Q01DX001 (ip), vehicle: saline.
Where [7] appears, read: dose: 400.0 mg/kg/injection, schedule: Q04DX003 (ip), vehicle: saline with Tween-80.
The mark [8] stands for this setting: dose: 100.0 mg/kg/injection, schedule: Q01DX001 (ip), vehicle: carboxymethylcellulose (CMC).
Where [9] appears, read: dose: 200.0 mg/kg/injection, schedule: Q01DX001 (ip), vehicle: carboxymethylcellulose (CMC).
The mark [10] stands for this setting: dose: 400.0 mg/kg/injection, schedule: Q01DX001 (ip), vehicle: carboxymethylcellulose (CMC).
[11] abbreviates: dose: 50.0 mg/kg/injection, schedule: Q01DX001 (ip), vehicle: carboxymethylcellulose (CMC).
The mark [12] stands for this setting: dose: 50.0 mg/kg/injection, schedule: Q01DX009 (ip), vehicle: saline with Tween-80.
[13] abbreviates: dose: 100.0 mg/kg/injection, schedule: Q01DX009 (ip), vehicle: saline with Tween-80.
[14] abbreviates: dose: 100.0 mg/kg/injection, schedule: Q01DX009 (ip), vehicle: Klucel (hydroxypropylcellulose) (HPC).
Setting [15] is: dose: 100.0 mg/kg/injection, schedule: Q04DX003 (ip), vehicle: Klucel (hydroxypropylcellulose) (HPC).
Where [16] appears, read: dose: 200.0 mg/kg/injection, schedule: Q01DX009 (ip), vehicle: Klucel (hydroxypropylcellulose) (HPC).
[17] abbreviates: dose: 200.0 mg/kg/injection, schedule: Q04DX003 (ip), vehicle: Klucel (hydroxypropylcellulose) (HPC).
Where [18] appears, read: dose: 400.0 mg/kg/injection, schedule: Q01DX009 (ip), vehicle: Klucel (hydroxypropylcellulose) (HPC).
Where [19] appears, read: dose: 400.0 mg/kg/injection, schedule: Q04DX003 (ip), vehicle: Klucel (hydroxypropylcellulose) (HPC).

With `O=S(=O)(Cc1ccccc1)Cc1ccccc1`, the T/C under setting [1] was 101 % of control; the T/C under setting [2] was 95 % of control; the T/C under setting [3] was 96 % of control; the T/C under setting [4] was 95 % of control; the T/C under setting [5] was 100 % of control; the T/C under setting [6] is 91 % of control. The T/C under setting [7] was 100 % of control.
On to `CC(=O)OCCn1c([N+](=O)[O-])cnc1/C=[N+](/[O-])CCO`, for which the T/C is, setting by setting: (dose: 100.0 mg/kg/injection, schedule: Q04DX002 (ip), vehicle: saline) 111 % of control; (dose: 200.0 mg/kg/injection, schedule: Q04DX002 (ip), vehicle: saline) 100 % of control; (dose: 400.0 mg/kg/injection, schedule: Q04DX002 (ip), vehicle: saline) 100 % of control.
With `O=C(Nc1cc2c3ccccc3ccc2c2ccccc12)C(F)(F)F`, the T/C was 91 % of control under setting [8], 92 % of control under setting [9] and 97 % of control under setting [10].
Turning to `CC[CH2][Ge]([CH2]CC)([CH2]CC)[O][Ge]([CH2]CC)([CH2]CC)[CH2]CC`, the T/C runs as follows: under setting [11], 96 % of control; under setting [1], 95 % of control; under setting [8], 100 % of control; under setting [2], 101 % of control; under setting [9], 100 % of control; under setting [4], 104 % of control. For the same compound, the T/C under setting [10] is 105 % of control.
On to `CC(=O)Nc1ccc(S(=O)(=O)Oc2ccccc2)cc1`, for which the T/C was 98 % of control (dose: 100.0 mg/kg/injection, schedule: Q04DX003 (ip), vehicle: alcohol); 98 % of control (dose: 200.0 mg/kg/injection, schedule: Q04DX003 (ip), vehicle: alcohol); 108 % of control (dose: 400.0 mg/kg/injection, schedule: Q04DX003 (ip), vehicle: alcohol).
`O=C(O)c1c(Cl)cccc1Cl`: the T/C runs as follows: (dose: 25.0 mg/kg/injection, schedule: Q01DX009 (ip), vehicle: saline with Tween-80) 92 % of control; under setting [12], 93 % of control; under setting [13], 93 % of control and 87 % of control; under setting [3], 98 % of control; under setting [5], 95 % of control; under setting [7], 95 % of control.
For `CCN(CC)C(=S)[S][Sb]([S]C(=S)N(CC)CC)[c]1ccccc1`, the T/C (dose: 100.0 mg/kg/injection, schedule: Q01DX001 (ip), vehicle: other) is 112 % of control and the T/C (dose: 200.0 mg/kg/injection, schedule: Q01DX001 (ip), vehicle: other) was 89 % of control.
As to `COc1ccc(Cl)cc1NC(=O)Nc1cc(C)ccc1Cl`, the T/C reads like this: under setting [14], 101 % of control; under setting [15], 90 % of control; under setting [16], 110 % of control; under setting [17], 95 % of control; under setting [18], 116 % of control; under setting [19], 95 % of control.
Regarding `O=C1OC(c2ccccc2)=NC1(c1ccccc1)C1(c2ccccc2)N=C(c2ccccc2)OC1=O` (centres undefined), the T/C runs as follows: under setting [3], 88 % of control; under setting [5], 93 % of control; under setting [7], 86 % of control.
With `CCOP(=O)(OCC)O/N=C(/C)c1cccc([N+](=O)[O-])c1`, the T/C is 100 % of control (dose: 5.0 mg/kg/injection, schedule: Q01DX001 (ip), vehicle: saline) and 97 % of control (dose: 10.0 mg/kg/injection, schedule: Q01DX001 (ip), vehicle: saline).
Take `ClCCN(CCCl)c1ccc(C=Nc2ccc(-c3csc(-c4ccccc4)n3)c(Cl)c2)cc1`: the T/C reads like this: (dose: 100.0 mg/kg/injection, schedule: Q01DX001 (sc), vehicle: carboxymethylcellulose (CMC)) 94 % of control; (dose: 200.0 mg/kg/injection, schedule: Q01DX001 (sc), vehicle: carboxymethylcellulose (CMC)) 97 % of control; (dose: 400.0 mg/kg/injection, schedule: Q01DX001 (sc), vehicle: carboxymethylcellulose (CMC)) 103 % of control.
For `NC(=O)C1C2C=CC(C2)C1C(N)=O` (centres undefined), the T/C was 96 % of control under setting [3], 91 % of control under setting [5] and 98 % of control under setting [7].
In the case of `O=NN(CCO)C(=O)Nc1c[nH]c(=O)[nH]c1=O`, the T/C (dose: 12.5 mg/kg/injection, schedule: Q01DX001 (ip), vehicle: carboxymethylcellulose (CMC)) was 118 % of control; the T/C (dose: 25.0 mg/kg/injection, schedule: Q01DX001 (ip), vehicle: carboxymethylcellulose (CMC)) is 118 % of control; the T/C under setting [11] is 122 % of control; the T/C under setting [10] was 190 % of control.
As to `ClCc1nc2ccccc2s1`, the T/C is 91 % of control under setting [14]; 92 % of control (dose: 100.0 mg/kg/injection, schedule: Q04DX002 (ip), vehicle: Klucel (hydroxypropylcellulose) (HPC)); 98 % of control under setting [16]; 103 % of control (dose: 200.0 mg/kg/injection, schedule: Q04DX002 (ip), vehicle: Klucel (hydroxypropylcellulose) (HPC)); 103 % of control (dose: 400.0 mg/kg/injection, schedule: Q04DX002 (ip), vehicle: Klucel (hydroxypropylcellulose) (HPC)).
Consider `COc1ccc(C2N(C=O)CC34CC(=O)C=CC23C4)cc1O` (centres undefined), for which the T/C (dose: 100.0 mg/kg/injection, schedule: Q04DX003 (ip), vehicle: saline) was 95 % of control; the T/C (dose: 200.0 mg/kg/injection, schedule: Q04DX003 (ip), vehicle: saline) is 93 % of control; the T/C (dose: 400.0 mg/kg/injection, schedule: Q04DX003 (ip), vehicle: saline) is 95 % of control.
With `O=C(O)c1ccc(Cl)cc1Cl`, the T/C was 88 % of control (dose: 100.0 mg/kg/injection, schedule: Q04DX002 (ip), vehicle: gum acacia); 98 % of control (dose: 200.0 mg/kg/injection, schedule: Q04DX002 (ip), vehicle: gum acacia); 100 % of control (dose: 400.0 mg/kg/injection, schedule: Q04DX002 (ip), vehicle: gum acacia).
On to `COc1cc([N+](=O)[O-])cc2c(C)cc(=O)[nH]c12`, for which the T/C by setting is: under setting [2], 95 % of control; (dose: 100.0 mg/kg/injection, schedule: Q01DX009 (ip), vehicle: saline) 103 % of control; under setting [4], 99 % of control; (dose: 200.0 mg/kg/injection, schedule: Q01DX009 (ip), vehicle: saline) 92 % of control; under setting [6], 93 % of control; (dose: 400.0 mg/kg/injection, schedule: Q01DX009 (ip), vehicle: saline) 93 % of control.
Turning to `C1CCC(P(C2CCCCC2)C2CCCCC2)CC1`, the T/C is 93 % of control under setting [15], 93 % of control under setting [17] and 89 % of control under setting [19].
With `COc1cc2c(O)cc(C(=O)OC(C)(C)C)c(-c3cc(OC)c(OC)c(OC)c3)c2cc1OC`, the T/C reads like this: under setting [2], 97 % of control; under setting [4], 95 % of control; under setting [6], 89 % of control.
With `C[n+]1cc(-c2ccccc2)cc2ccccc21`, for the setting “dose: 75.0 mg/kg/injection, schedule: Q01DX001 (ip), vehicle: saline”, the T/C is 97 % of control.
Take `Nc1nc(N)c2nnn(C3CC(O)C(CO)C3)c2n1` (centres undefined): the T/C by setting is: under setting [12], 89 % of control; under setting [13], 96 % of control; (dose: 200.0 mg/kg/injection, schedule: Q01DX009 (ip), vehicle: saline with Tween-80) 92 % of control.
For `NS(=O)(=O)O.[Ni]`, the T/C (dose: 16.0 mg/kg/injection, schedule: Q04DX003 (ip), vehicle: saline) was 108 % of control; the T/C (dose: 25.0 mg/kg/injection, schedule: Q04DX003 (ip), vehicle: saline) was 92 % of control; the T/C (dose: 35.0 mg/kg/injection, schedule: Q04DX003 (ip), vehicle: saline) was 93 % of control; the T/C (dose: 50.0 mg/kg/injection, schedule: Q04DX003 (ip), vehicle: saline) is 103 % of control.
Consider `CSc1ccc(OC(=O)Nc2ccc(Cl)cc2Cl)cc1C`, for which the T/C under setting [14] is 95 % of control, the T/C under setting [16] is 98 % of control and the T/C under setting [18] was 95 % of control.
As for `O=C1c2ccccc2CCCC1N1CCOCC1` (centres undefined), the T/C was 95 % of control under setting [3], 94 % of control under setting [5] and 87 % of control under setting [7].
